Measured values published in article PMC7587962, “Evaluation of Cytotoxicity and α-Glucosidase Inhibitory Activity of Amide and Polyamino-Derivatives of Lupane Triterpenoids” (Molecules, 2020).
Where two headings read alike, the source gives them in different places.

Tests used:
[1] = test system: HL-60(TB); experiment: NCI-60 SRB screen: leukemia HL-60(TB); type: cell-based; details: Homo sapiens, 48 h, HL-60(TB)
[2] = test system: K-562; experiment: NCI-60 SRB screen: leukemia K-562; type: cell-based, human; details: K-562
[3] = test system: A549/ATCC; experiment: NCI-60 SRB screen: non-small cell lung cancer A549/ATCC; type: cell-based, human; details: A549/ATCC
[4] = test system: NCI-H23; experiment: NCI-60 SRB screen: non-small cell lung cancer NCI-H23; type: cell-based, human; details: NCI-H23
[5] = test system: NCI-H460; experiment: NCI-60 SRB screen: non-small cell lung cancer NCI-H460; type: cell-based; details: Homo sapiens, 48 h, NCI-H460
[6] = test system: NCI-H522; experiment: NCI-60 SRB screen: non-small cell lung cancer NCI-H522; type: cell-based, human; details: NCI-H522
[7] = test system: COLO 205; experiment: NCI-60 SRB screen: colon cancer COLO 205; type: cell-based, human; details: COLO 205
[8] = test system: HCC-2998; experiment: NCI-60 SRB screen: colon cancer HCC-2998; type: cell-based, human; details: HCC-2998
[9] = test system: HCT-116; experiment: NCI-60 SRB screen: colon cancer HCT-116; type: cell-based; details: Homo sapiens, 48 h, HCT-116
[10] = test system: HCT-15; experiment: NCI-60 SRB screen: colon cancer HCT-15; type: cell-based, human; details: HCT-15
[11] = test system: HT29; experiment: NCI-60 SRB screen: colon cancer HT29; type: cell-based; details: Homo sapiens, HT29
[12] = test system: KM12; experiment: NCI-60 SRB screen: colon cancer KM12; type: cell-based, human; details: KM12
[13] = test system: SW-620; experiment: NCI-60 SRB screen: colon cancer SW-620; type: cell-based; details: Homo sapiens, 48 h, SW-620
[14] = test system: SF-268; experiment: NCI-60 SRB screen: CNS cancer SF-268; type: cell-based, human; details: SF-268
[15] = test system: SF-539; experiment: NCI-60 SRB screen: CNS cancer SF-539; type: cell-based, human; details: SF-539
[16] = test system: SNB-19; experiment: NCI-60 SRB screen: CNS cancer SNB-19; type: cell-based, human; details: SNB-19
[17] = test system: LOX IMVI; experiment: NCI-60 SRB screen: melanoma LOX IMVI; type: cell-based, human
[18] = test system: MDA-MB-435; experiment: NCI-60 SRB screen: melanoma MDA-MB-435; type: cell-based, human; details: MDA-MB-435
[19] = test system: SK-MEL-2; experiment: NCI-60 SRB screen: melanoma SK-MEL-2; type: cell-based, human; details: SK-MEL-2
[20] = test system: SK-MEL-5; experiment: NCI-60 SRB screen: melanoma SK-MEL-5; type: cell-based, human; details: SK-MEL-5
[21] = test system: UACC-62; experiment: NCI-60 SRB screen: melanoma UACC-62; type: cell-based, human; details: UACC-62
[22] = test system: IGROV1; experiment: NCI-60 SRB screen: ovarian cancer IGROV1; type: cell-based, human; details: IGROV1
[23] = test system: OVCAR-3; experiment: NCI-60 SRB screen: ovarian cancer OVCAR-3; type: cell-based, human; details: OVCAR-3
[24] = test system: ACHN; experiment: NCI-60 SRB screen: renal cancer ACHN; type: cell-based, human
[25] = test system: UO-31; experiment: NCI-60 SRB screen: renal cancer UO-31; type: cell-based, human; details: UO-31
[26] = test system: PC-3; experiment: NCI-60 SRB screen: prostate cancer PC-3; type: cell-based, human; details: PC-3
[27] = test system: MDA-MB-231/ATCC; experiment: NCI-60 SRB screen: breast cancer MDA-MB-231/ATCC; type: cell-based; details: Homo sapiens, 48 h
[28] = test system: MDA-MB-468; experiment: NCI-60 SRB screen: breast cancer MDA-MB-468; type: cell-based, human
[29] = test system: 60 human tumor cell lines; details: single dose 10 µM
[30] = test system: 60 human tumor cell lines; experiment: cells
[31] = test system: Leukemia subpanel; experiment: NCI-60 screen, subpanel Leukemia
[32] = test system: Melanoma subpanel; experiment: NCI-60 screen, subpanel Melanoma
[33] = test system: CNS cancer subpanel; experiment: NCI-60 screen, subpanel CNS cancer
[34] = test system: NSCL cancer subpanel; experiment: NCI-60 screen, subpanel NSCL cancer
[35] = test system: Renal Cancer subpanel; experiment: NCI-60 screen, subpanel Renal Cancer
[36] = test system: Breast cancer subpanel; experiment: NCI-60 screen, subpanel Breast cancer
[37] = single dose 10 µM, read-out: Percentage Cell Growth
[38] = five concentrations, SRB, read-out: GI50
[39] = Homo sapiens, five concentrations, 48 h, SRB, read-out: GI50

Question: What does the source list for C=C(C)[C@@H]1CC[C@]2(C(=O)NCCCN)CC[C@]3(C)[C@H](CC[C@@H]4[C@@]5(C)CCC(=O)C(C)(C)[C@@H]5CC[C@]43C)[C@@H]12 [Compound 10]?
Answer: activity at 10 µM [1, 37]: 1.25%; GI50 [1, 38]: 16.5 µM; GI50 ([2]; Homo sapiens, K562, five concentrations, 48 h, SRB, read-out: GI50): 9.84 µM; Percentage Cell Growth ([2]; single dose 10 µM): 1.10%; Percentage Cell Growth ([3]; single dose 10 µM): −4.70%; GI50 [3, 39]: 19.6 µM; GI50 [4, 39]: 22.6 µM; Percentage Cell Growth ([4]; single dose 10 µM): −8.47%; activity at 10 µM [5, 37]: -43.2%; GI50 [5, 38]: 14 µM; GI50 [6, 39]: 21 µM; Percentage Cell Growth ([6]; single dose 10 µM): −16.98%; Percentage Cell Growth ([7]; single dose 10 µM): 7.82%; GI50 [7, 39]: 21 µM; Percentage Cell Growth ([8]; single dose 10 µM): −23.40%; GI50 [8, 39]: 21.4 µM; activity at 10 µM [9, 37]: 1.97%; GI50 [9, 38]: 13.9 µM; Percentage Cell Growth ([10]; single dose 10 µM): −22.06%; GI50 [10, 39]: 21.7 µM; activity at 10 µM ([11]; HT-29, 48 h, single dose 10 µM, read-out: Percentage Cell Growth): 3.9%; GI50 ([11]; HT-29, five concentrations, 48 h, SRB, read-out: GI50): 6.95 µM; GI50 [12, 39]: 17.3 µM; Percentage Cell Growth ([12]; single dose 10 µM): −25.31%; activity at 10 µM [13, 37]: -36.2%; GI50 [13, 38]: 22.5 µM; GI50 [14, 39]: 23 µM; Percentage Cell Growth ([14]; single dose 10 µM): −16.88%; GI50 [15, 39]: 17.9 µM; Percentage Cell Growth ([15]; single dose 10 µM): −36.20%; GI50 [16, 39]: 24.7 µM; Percentage Cell Growth ([16]; single dose 10 µM): −29.49%; GI50 [17, 39]: 25.5 µM; Percentage Cell Growth ([17]; single dose 10 µM): 1.37%; GI50 [18, 39]: 28.7 µM; Percentage Cell Growth ([18]; single dose 10 µM): −32.41%; GI50 [19, 39]: 27.3 µM; Percentage Cell Growth ([19]; single dose 10 µM): −24.21%; GI50 [20, 39]: 19.4 µM; Percentage Cell Growth ([20]; single dose 10 µM): −23.93%; GI50 [21, 39]: 27.4 µM; Percentage Cell Growth ([21]; single dose 10 µM): −22.62%; GI50 ([22]; Homo sapiens, IGROV-1, five concentrations, 48 h, SRB, read-out: GI50): 21.5 µM; Percentage Cell Growth ([22]; single dose 10 µM): −6.94%; GI50 [23, 39]: 15.7 µM; Percentage Cell Growth ([23]; single dose 10 µM): −45.89%; GI50 [24, 39]: 21.7 µM; Percentage Cell Growth ([24]; single dose 10 µM): −49.24%; GI50 [25, 39]: 38.9 µM; Percentage Cell Growth ([25]; single dose 10 µM): −34.32%; GI50 [26, 39]: 12.6 µM; Percentage Cell Growth ([26]; single dose 10 µM): −53.78%; activity at 10 µM ([27]; MDA-MB-231/ATCC, single dose 10 µM, read-out: Percentage Cell Growth): -47.8%; GI50 ([27]; MDA-MB-231, MDA-MB-31/ATCC, five concentrations, SRB, read-out: GI50): 21.1 µM; GI50 [28, 39]: 12.6 µM; Percentage Cell Growth ([28]; single dose 10 µM): −19.87%; cancer cell lethality, range of percentage growth ([29]; cell lines with negative growth): −2.14% to −100%; cases of cancer cell lethality ([29]; number of cell lines): 48; GI50 ([30]; read-out: GI50 ranges against all panels of NCI60): 6.95 to 38.9 µM; GI50 ([30]; read-out: MID a, average sensitivity of all cell line (GI50-MID)): 20.5 µM; MID b, average sensitivity of all cell line of particular subpanel [31]: 14.59 µM; Selectivity, ratio MID a: MID b [31]: 1.40; MID b, average sensitivity of all cell line of particular subpanel [32]: 24.33 µM; Selectivity, ratio MID a: MID b [32]: 0.84; MID b, average sensitivity of all cell line of particular subpanel [33]: 23.00 µM; Selectivity, ratio MID a: MID b [33]: 0.89; MID b, average sensitivity of all cell line of particular subpanel [34]: 18.71 µM; Selectivity, ratio MID a: MID b [34]: 1.09; MID b, average sensitivity of all cell line of particular subpanel [35]: 23.80 µM; Selectivity, ratio MID a: MID b [35]: 0.86; MID b, average sensitivity of all cell line of particular subpanel [36]: 20.30 µM; Selectivity, ratio MID a: MID b [36]: 1.01
